Measurements: US20250215012A1, “IKZF2 DEGRADERS AND USES THEREOF” (REGENTS OF THE UNIVERSITY OF MICHIGAN, priority 2022, published 2025)

Molecular target: IKZF2 (Homo sapiens (Human), UniProt Q96SW2+Q9UKS7)
Experiment: IKZF2 HiBiT Assay (Jurkat-IKZF2-HiBiT cell line)
Format: cell-based
Conditions: Jurkat-IKZF2-HiBiT cells, 24 hours; for Dmax: read-out: HiBit assay degradation analysis Dmax; for DC50: read-out: HiBit assay degradation analysis DC50
How it was run: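 Jurkat cells carrying HiBiT-tagged IKZF2 were exposed to serially diluted compound for 24 h at 37 °C. Remaining IKZF2 was measured by Nano-Glo HiBiT lytic luminescence after 10-20 min at room temperature. Signal was normalized to DMSO, and IC50 came from a four-parameter variable-slope fit.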

Sequence of IKZF2 (Q9UKS7 whole entry): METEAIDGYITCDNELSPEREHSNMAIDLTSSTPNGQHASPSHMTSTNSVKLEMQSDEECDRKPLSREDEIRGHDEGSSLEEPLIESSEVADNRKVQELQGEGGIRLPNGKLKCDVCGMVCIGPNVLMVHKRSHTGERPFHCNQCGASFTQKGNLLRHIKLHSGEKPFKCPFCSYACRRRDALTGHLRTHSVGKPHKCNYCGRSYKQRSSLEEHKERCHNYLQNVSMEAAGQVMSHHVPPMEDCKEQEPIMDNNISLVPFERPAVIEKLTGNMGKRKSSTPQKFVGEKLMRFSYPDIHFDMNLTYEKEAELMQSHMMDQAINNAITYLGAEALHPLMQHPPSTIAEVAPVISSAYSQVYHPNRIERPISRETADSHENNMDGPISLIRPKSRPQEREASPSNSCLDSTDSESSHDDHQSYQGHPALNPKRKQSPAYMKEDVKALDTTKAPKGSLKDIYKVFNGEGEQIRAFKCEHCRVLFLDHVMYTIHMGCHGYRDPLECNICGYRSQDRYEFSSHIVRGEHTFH
Sequence of IKZF2 (Q96SW2 whole entry): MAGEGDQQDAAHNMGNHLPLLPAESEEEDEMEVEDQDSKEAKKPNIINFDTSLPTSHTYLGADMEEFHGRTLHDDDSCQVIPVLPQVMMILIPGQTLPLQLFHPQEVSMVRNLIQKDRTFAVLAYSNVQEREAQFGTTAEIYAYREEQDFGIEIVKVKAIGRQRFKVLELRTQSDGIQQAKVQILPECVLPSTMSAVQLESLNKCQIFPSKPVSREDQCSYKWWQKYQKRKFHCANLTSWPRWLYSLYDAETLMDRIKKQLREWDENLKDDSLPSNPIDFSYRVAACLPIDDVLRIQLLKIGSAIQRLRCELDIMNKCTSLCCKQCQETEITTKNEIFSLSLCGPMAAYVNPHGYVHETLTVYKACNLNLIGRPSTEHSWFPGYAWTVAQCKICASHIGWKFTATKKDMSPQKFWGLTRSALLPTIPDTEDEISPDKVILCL
Sequence of IKZF2 (Q16531 whole entry partner): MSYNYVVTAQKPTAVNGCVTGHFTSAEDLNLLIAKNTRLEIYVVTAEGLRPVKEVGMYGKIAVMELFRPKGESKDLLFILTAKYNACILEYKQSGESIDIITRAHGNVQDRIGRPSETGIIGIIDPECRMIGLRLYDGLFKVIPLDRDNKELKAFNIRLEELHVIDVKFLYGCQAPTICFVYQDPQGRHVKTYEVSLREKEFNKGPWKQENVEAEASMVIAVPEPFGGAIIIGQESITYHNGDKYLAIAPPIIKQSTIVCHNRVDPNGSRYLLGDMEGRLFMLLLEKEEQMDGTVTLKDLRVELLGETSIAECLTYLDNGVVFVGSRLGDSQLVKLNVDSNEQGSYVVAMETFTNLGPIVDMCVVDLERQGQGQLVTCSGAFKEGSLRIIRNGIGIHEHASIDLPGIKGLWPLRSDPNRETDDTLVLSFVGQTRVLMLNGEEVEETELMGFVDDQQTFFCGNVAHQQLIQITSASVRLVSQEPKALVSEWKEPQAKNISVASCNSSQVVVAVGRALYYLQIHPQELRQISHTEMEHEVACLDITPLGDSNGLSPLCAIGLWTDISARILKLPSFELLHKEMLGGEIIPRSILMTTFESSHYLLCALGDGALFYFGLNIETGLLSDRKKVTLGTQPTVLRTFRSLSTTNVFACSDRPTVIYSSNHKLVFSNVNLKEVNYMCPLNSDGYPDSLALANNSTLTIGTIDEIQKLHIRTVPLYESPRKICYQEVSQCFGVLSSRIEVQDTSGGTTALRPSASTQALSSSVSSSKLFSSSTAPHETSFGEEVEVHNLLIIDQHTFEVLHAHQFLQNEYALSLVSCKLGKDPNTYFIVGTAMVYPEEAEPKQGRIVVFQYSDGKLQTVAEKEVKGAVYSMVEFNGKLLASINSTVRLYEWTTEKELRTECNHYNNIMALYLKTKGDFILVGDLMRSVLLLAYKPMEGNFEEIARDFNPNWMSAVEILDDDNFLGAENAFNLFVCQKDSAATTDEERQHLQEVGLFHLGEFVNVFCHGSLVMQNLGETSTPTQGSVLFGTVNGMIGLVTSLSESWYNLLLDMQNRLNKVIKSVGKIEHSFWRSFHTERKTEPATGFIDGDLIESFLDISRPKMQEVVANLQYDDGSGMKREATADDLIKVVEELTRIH

SMILES | Dmax [%] | DC50 [nM] | HiBit assay degradation analysis Dmax
O=C1CC[C@H](N2Cc3c(ccc4c3OCC43CCN(Cc4cnn(S(=O)(=O)c5ccc(Cl)cc5)c4)CC3)C2=O)C(=O)N1 [Compound A352, (S)-3-(1′-((1-((4-chlorophenyl)sulfonyl)-1H-pyrazol-4-yl)methyl)-6-oxo-6,8-dihydro-2H,7H-spiro[furo[2,3-e]isoindole-3,4′-piperidin]-7-yl)piperidine-2,6-dione] | < 40 |  | 
O=C1CCC(N2Cc3c(ccc4c3OCC43CCN(Cc4cnn(-c5ccc(Cl)cc5)c4)CC3)C2=O)C(=O)N1 (stereo not shown) [Compound A314, 3-(1′-((1-(4-chlorophenyl)-1H-pyrazol-4-yl)methyl)-6-oxo-6,8-dihydro-2H,7H-spiro[furo[2,3-e]isoindole-3,4′-piperidin]-7-yl)piperidine-2,6-dione] | 60 to 80 | < 50 | 
O=C1CCC(N2Cc3c(ccc4c3OCC43CCN(Cc4ccc5ncsc5c4)CC3)C2=O)C(=O)N1 (stereo not shown) [Compound A62, 3-(1′-(benzo[d]thiazol-6-ylmethyl)-6-oxo-6,8-dihydro-2H,7H-spiro[furo[2,3-e]isoindole-3,4′-piperidin]-7-yl)piperidine-2,6-dione] | 40 to 60 | 200 to 500 | 
Cn1cc2ccc(CN3CCC4(CC3)COc3c4ccc4c3CN([C@H]3CCC(=O)NC3=O)C4=O)cc2n1 [Compound A169, (S)-3-(1′-((2-methyl-2H-indazol-6-yl)methyl)-6-oxo-6,8-dihydro-2H,7H-spiro[furo[2,3-e]isoindole-3,4′-piperidin]-7-yl)piperidine-2,6-dione] | 60 to 80 | < 50 | 
O=C1CC[C@H](N2Cc3c(ccc4c3OCC43CCN(Cc4ccc5cn(C6COC6)nc5c4)CC3)C2=O)C(=O)N1 [Compound A285, (S)-3-(1′-((2-(oxetan-3-yl)-2H-indazol-6-yl)methyl)-6-oxo-6,8-dihydro-2H,7H-spiro[furo[2,3-e]isoindole-3,4′-piperidin]-7-yl)piperidine-2,6-dione] | 60 to 80 | < 50 | 
O=C1CC[C@H](N2Cc3c(ccc4c3OCC43CCN(Cc4cnn(S(=O)(=O)c5ccccc5F)c4)CC3)C2=O)C(=O)N1 [Compound A355, (S)-3-(1′-((1-((2-fluorophenyl)sulfonyl)-1H-pyrazol-4-yl)methyl)-6-oxo-6,8-dihydro-2H,7H-spiro[furo[2,3-e]isoindole-3,4′-piperidin]-7-yl)piperidine-2,6-dione] |  | 200 to 500 | C (“C” >=40% and <60%)
O=C1CCC(N2Cc3c(ccc4c3OCC43CCN(Cc4cnn5c4CCC5)CC3)C2=O)C(=O)N1 (stereo not shown) [Compound A244, 3-(1′-((5,6-dihydro-4H-pyrrolo[1,2-b]pyrazol-3-yl)methyl)-6-oxo-6,8-dihydro-2H,7H-spiro[furo[2,3-e]isoindole-3,4′-piperidin]-7-yl)piperidine-2,6-dione] | 60 to 80 | 200 to 500 | 
O=C1CCC(N2Cc3c(ccc4c3OCC43CCN(Cc4cccc(C(F)F)c4)CC3)C2=O)C(=O)N1 (stereo not shown) [Compound A94, 3-(1′-(3-(difluoromethyl)benzyl)-6-oxo-6,8-dihydro-2H,7H-spiro[furo[2,3-e]isoindole-3,4′-piperidin]-7-yl)piperidine-2,6-dione] | 40 to 60 | 200 to 500 | 
O=C1CCC(N2Cc3c(ccc4c3OCC43CCN(Cc4ccc(Cl)c5ccccc45)CC3)C2=O)C(=O)N1 (stereo not shown) [Compound A37, 3-(1′-((4-chloronaphthalen-1-yl)methyl)-6-oxo-6,8-dihydro-2H,7H-spiro[furo[2,3-e]isoindole-3,4′-piperidin]-7-yl)piperidine-2,6-dione] | 40 to 60 | > 500 | 
O=C1CCC(N2Cc3c(ccc4c3OCC43CCN(Cc4n[nH]c5ccccc45)CC3)C2=O)C(=O)N1 (stereo not shown) [Compound A227, 3-(1′-((1H-indazol-3-yl)methyl)-6-oxo-6,8-dihydro-2H,7H-spiro[furo[2,3-e]isoindole-3,4′-piperidin]-7-yl)piperidine-2,6-dione] | 40 to 60 | > 500 | 
O=C1CCC(N2Cc3c(ccc4c3OCC43CCN(Cc4ccc(-c5cn[nH]c5)cc4)CC3)C2=O)C(=O)N1 (stereo not shown) [Compound A162, 3-(1′-(4-(1H-pyrazol-4-yl)benzyl)-6-oxo-6,8-dihydro-2H,7H-spiro[furo[2,3-e]isoindole-3,4′-piperidin]-7-yl)piperidine-2,6-dione] | 60 to 80 | 50 to 200 | 
O=C1CC[C@H](N2Cc3c(ccc4c3OCC43CCN(Cc4cccc(C5CCOC5)c4)CC3)C2=O)C(=O)N1 (stereo partly drawn) [Compound A304, (3S)-3-(6-oxo-1′-(3-(tetrahydrofuran-3-yl)benzyl)-6,8-dihydro-2H,7H-spiro[furo[2,3-e]isoindole-3,4′-piperidin]-7-yl)piperidine-2,6-dione] | 40 to 60 | > 500 | 
O=C1CCC(N2Cc3c(ccc4c3OCC43CCN(Cc4cccc5c4CCC5)CC3)C2=O)C(=O)N1 (stereo not shown) [Compound A207, 3-(1′-((2,3-dihydro-1H-inden-4-yl)methyl)-6-oxo-6,8-dihydro-2H,7H-spiro[furo[2,3-e]isoindole-3,4′-piperidin]-7-yl)piperidine-2,6-dione] | < 40 | > 500 | 
O=C1CCC(N2Cc3c(ccc4c3OCC43CCN(Cc4cccc(-c5ccccn5)c4)CC3)C2=O)C(=O)N1 (stereo not shown) [Compound A103, 3-(6-oxo-1′-(3-(pyridin-2-yl)benzyl)-6,8-dihydro-2H,7H-spiro[furo[2,3-e]isoindole-3,4′-piperidin]-7-yl)piperidine-2,6-dione] | 40 to 60 | 200 to 500 | 
O=C1CCC(N2Cc3c(ccc4c3OCC43CCN(Cc4ccc5c(Cl)n[nH]c5c4)CC3)C2=O)C(=O)N1 (stereo not shown) [Compound A142, 3-(1′-((3-chloro-1H-indazol-6-yl)methyl)-6-oxo-6,8-dihydro-2H,7H-spiro[furo[2,3-e]isoindole-3,4′-piperidin]-7-yl)piperidine-2,6-dione] | 60 to 80 | 50 to 200 | 
O=C1CCC(N2Cc3c(ccc4c3OCC43CCN(Cc4cnn(C5CC5)c4)CC3)C2=O)C(=O)N1 (stereo not shown) [Compound A230, 3-(1′-((1-cyclopropyl-1H-pyrazol-4-yl)methyl)-6-oxo-6,8-dihydro-2H,7H-spiro[furo[2,3-e]isoindole-3,4′-piperidin]-7-yl)piperidine-2,6-dione] | 40 to 60 | > 500 | 
O=C1CCC(N2Cc3c(ccc4c3OCC43CCN(Cc4cnn(CC(F)(F)F)c4)CC3)C2=O)C(=O)N1 (stereo not shown) [Compound A232, 3-(6-oxo-1′-((1-(2,2,2-trifluoroethyl)-1H-pyrazol-4-yl)methyl)-6,8-dihydro-2H,7H-spiro[furo[2,3-e]isoindole-3,4′-piperidin]-7-yl)piperidine-2,6-dione] | 40 to 60 | > 500 | 
O=C1CCC(N2Cc3c(ccc4c3OCC43CCN(Cc4cccc5ccnn45)CC3)C2=O)C(=O)N1 (stereo not shown) [Compound A76, 3-(6-oxo-1′-(pyrazolo[1,5-]pyridin-7-ylmethyl)-6,8-dihydro-2H,7H-spiro[furo[2,3-e]isoindole-3,4′-piperidin]-7-yl)piperidine-2,6-dione] | < 40 | > 500 | 
[2H]C([2H])([2H])n1cc(-c2cccc(CN3CCC4(CC3)COc3c4ccc4c3CN([C@H]3CCC(=O)NC3=O)C4=O)c2)cn1 [Compound A291, (S)-3-(1′-(3-(1-(methyl-d3)-1H-pyrazol-4-yl)benzyl)-6-oxo-6,8-dihydro-2H,7H-spiro[furo[2,3-e]isoindole-3,4′-piperidin]-7-yl)piperidine-2,6-dione] | 60 to 80 | < 50 | 
O=C1CCC(N2Cc3c(ccc4c3OCC43CCN(Cc4cccc5cccnc45)CC3)C2=O)C(=O)N1 (stereo not shown) [Compound A41, 3-(6-oxo-1′-(quinolin-8-ylmethyl)-6,8-dihydro-2H,7H-spiro[furo[2,3-e]isoindole-3,4′-piperidin]-7-yl)piperidine-2,6-dione] | 60 to 80 | 50 to 200 | 
O=C1CCC(N2Cc3c(ccc4c3OCC43CCN(Cc4csc5ccccc45)CC3)C2=O)C(=O)N1 (stereo not shown) [Compound A185, 3-(1′-(benzo[b]thiophen-3-ylmethyl)-6-oxo-6,8-dihydro-2H,7H-spiro[furo[2,3-e]isoindole-3,4′-piperidin]-7-yl)piperidine-2,6-dione] | 60 to 80 | < 50 | 
[2H]C([2H])([2H])n1ccc(-c2cccc(CN3CCC4(CC3)COc3c4ccc4c3CN([C@H]3CCC(=O)NC3=O)C4=O)c2)n1 [Compound A302, (S)-3-(1′-(3-(1-(methyl-d3)-1H-pyrazol-3-yl)benzyl)-6-oxo-6,8-dihydro-2H,7H-spiro[furo[2,3-e]isoindole-3,4′-piperidin]-7-yl)piperidine-2,6-dione] | 60 to 80 | < 50 | 
Cn1ncc(-c2cccc(CN3CCC4(CC3)COc3c4ccc4c3CN([C@H]3CCC(=O)NC3=O)C4=O)c2)n1 [Compound A296, (S)-3-(1′-(3-(2-methyl-2H-1,2,3-triazol-4-yl)benzyl)-6-oxo-6,8-dihydro-2H,7H-spiro[furo[2,3-e]isoindole-3,4′-piperidin]-7-yl)piperidine-2,6-dione] | 60 to 80 | < 50 | 
O=C1CC[C@H](N2Cc3c(ccc4c3OCC43CCN(Cc4cnn(CC5(c6ccccc6)CC5)c4)CC3)C2=O)C(=O)N1 [Compound A348, (S)-3-(6-oxo-1′-((1-((1-phenylcyclopropyl)methyl)-1H-pyrazol-4-yl)methyl)-6,8-dihydro-2H,7H-spiro[furo[2,3-e]isoindole-3,4′-piperidin]-7-yl)piperidine-2,6-dione] | 60 to 80 | < 50 | 
CC(c1ccccc1)N1CCC2(CC1)COc1c2ccc2c1CN(C1CCC(=O)NC1=O)C2=O (stereo not shown) [Compound A318, 3-(6-oxo-1′-(1-phenylethyl)-6,8-dihydro-2H,7H-spiro[furo [2,3-e]isoindole-3,4′-piperidin]-7-yl)piperidine-2,6-dione] | 60 to 80 | < 50 | 
